{"source": "paper PMC2632993", "about": "“Conformational changes in α7 acetylcholine receptors underlying allosteric modulation by divalent cations” (BMC Pharmacology, 2009)", "test_in_all_cases": "MTSEA thiol modification rate (SCAM) from ACh-evoked currents in oocytes", "format_in_all_cases": "cell-based, chick", "settings_in_all_cases": "10 mM Ba^2+", "key": {"[1]": {"target": "α7 AChR M^37C mutant (C^115A/L^247T background) (Gallus gallus, UniProt P22770, C138A/L270T/M60C)", "protocol": "(§1) ACh-evoked current amplitudes decreased following brief, repeated exposure to a limiting concentration of MTSEA (5 μM, 15 seconds). To ensure that the modification reactions were complete, all rate measurements included a final prolonged application of ~100-fold higher concentrations of MTSEA (Fig. 3A and 3B, right). Currents measured following this application represent the endpoint of the reaction between MTSEA and receptors. When the same protocol included Ba^2+ pretreatment and co-application with MTSEA (see Methods), the decreases in current amplitudes were slowed but the same endpoint was obtained (Fig. 3B). Normalized current amplitudes were plotted as a function of the cumulative time of exposure to MTSEA, and pseudo first-order rates were extracted from the single-exponential fits (Fig. 3C).\n(§2) Figure 3 Barium slows the rate of MTSEA modification at M^37C. Example of experimental paradigm used to assess Ba^2+ effects on modification rates. […] Endpoints of MTSEA modification are determined by prolonged application of 500 μM MTSEA (right). (B) The same protocol, including Ba^2+ pretreatment and co-application with MTSEA. Current traces are truncated in both (A) and (B) between consecutive MTSEA applications; in all cases the currents were allowed to return to baseline prior to the next application of MTSEA ± ACh. (C) Peak current amplitudes from (A) and (B) are normalized and plotted versus total MTSEA exposure time. Data from this single experiment (no error bars) are fitted to a single-exponential decay (solid line) to extract an apparent pseudo first-order rate constant. The pseudo first-order rate constants calculated in this experiment were 0.011 s^-1 and 0.0019 s^-1 for control (A) and +Ba^2+ (B) measurements, respectively. Second-order rate constants are calculated from these values (Figures 4–6; Table 2).\n(§3) Oocytes were superfused in normal extracellular solution containing a reduced Ca^2+ concentration (ESLC; 96 mM NaCl, 2 mM KCl, 1 mM MgCl2, 0.1 mM CaCl2, and 10 mM HEPES, pH 7.5). This solution minimized Ca^2+ influx and eliminated Ca^2+-activated chloride currents. Two-electrode voltage clamp was performed with a GeneClamp 500B controlled by pCLAMP8 software (Molecular Devices, Sunnyvale, CA). Electrodes were filled with 3 M KCl contacting Ag-AgCl wires and had resistances of 0.5 to 2.0 MΩ. Currents were recorded at a constant holding potential of -60 mV. Currents were low pass filtered at 50 Hz and sampled at 100 Hz. Agonist dose-response curves were obtained as described previously, and data were fit to the Hill equation using Origin software (Microcal Software, Northampton, MA).\n(§4) MTSEA was prepared daily in distilled water and stored on ice. Stock solution was diluted to the appropriate working concentration in ESLC immediately before each application. […] The limiting dose, yielding 20–40% of the maximal MTSEA effect, was identified for each mutant. […] To measure the effect of Ba^2+ on modification rates we pre-applied 10 mM Ba^2+ for 30 seconds prior to co-application of 10 mM Ba^2+ plus MTSEA. This concentration of Ba^2+ is equivalent to an approximate […] for the modulatory effects in both parental and mutant AChRs. Kinetic data were analyzed as described previously; rate data were fit to a single exponential to extract a pseudo-first order rate constant; this was divided by the MTSEA concentration used to determine the second order rate constant for thiol modification."}, "[2]": {"target": "T1, α7 AChR M^40C mutant (C^115A/L^247T background) (Gallus gallus, UniProt P22770, C138A/L270T/M63C)", "T1 construct": "expressed in transfected cells; host or cells: Xenopus laevis oocytes injected with cRNA", "protocol": "as §1, §2, §3, §4"}, "[3]": {"target": "α7 AChR M^40C/E^172Q mutant (C^115A/L^247T background) (Gallus gallus, UniProt P22770, C138A/E195Q/L270T/M63C)", "protocol": "as §1, §2, §3, §4"}, "[4]": {"target": "α7 AChR E^172C mutant (C^115A/L^247T background) (Gallus gallus, UniProt P22770, C138A/E195C/L270T)", "protocol": "as §1, §2, §3, §4"}, "[5]": {"target": "α7 AChR E^44C mutant (C^115A/L^247T background) (Gallus gallus, UniProt P22770, C138A/E67C/L270T)", "protocol": "as §1, §2, §3, §4"}, "[6]": {"target": "α7 AChR N^170C mutant (C^115A/L^247T background) (Gallus gallus, UniProt P22770, C138A/L270T/N193C)", "protocol": "as §1, §2, §3, §4"}, "[7]": {"target": "α7 AChR N^52C mutant (C^115A/L^247T background) (Gallus gallus, UniProt P22770, C138A/L270T/N75C)", "protocol": "as §1, §2, §3, §4"}}, "data": [{"smiles": "[Ba+2].[Cl-].[Cl-]", "note": "[Ba^2+, BaCl2]", "values": [{"measurement": "effect of Ba^2+ on MTSEA modification rate", "setting": "[1]", "value": "significant decreases"}, {"measurement": "effect of Ba^2+ on MTSEA modification rate", "setting": "[2]", "value": "significant decreases"}, {"measurement": "effect of Ba^2+ on MTSEA modification rate", "setting": "[3]", "value": "significant slowing"}, {"measurement": "effect of Ba^2+ on MTSEA modification rate", "setting": "[4]", "value": "significant Ba^2+-dependent decreases"}, {"measurement": "effect of Ba^2+ on MTSEA modification rate", "setting": "[5]", "value": "significant Ba^2+-dependent decreases"}, {"measurement": "effect of Ba^2+ on MTSEA modification rate", "setting": "[6]", "value": "the same as that measured in MTSEA alone"}, {"measurement": "effect of Ba^2+ on MTSEA modification rate", "setting": "[7]", "value": "no significant effect"}]}]}
